Reference: paper PMC4309560, “Creating Novel Activated Factor XI Inhibitors through Fragment Based Lead Generation and Structure Aided Drug Design” (PLoS ONE, 2015)
Like-named read-outs stand apart in the source and are kept apart here.

Assays:
Human FXIa = molecular target: T1, Human FXIa (Homo sapiens, UniProt P03951); test: FXIa enzymatic chromogenic assay; type: biochemical
T1 construct: purchased HTI, Essex Junction, USA
Procedure: (§1) Enzymatic assay. […] Selected compounds were also screened against other serine proteases to evaluate their selectivity profiles.
(§2) Once the compounds were synthesized and characterized, enzymatic assays were performed to evaluate the inhibitory activity of the resulting compounds against FXIa and other serine proteases. […] IC50 values for the compounds were determined using equation: Q= V/(1+([I]/IC50)^n) Q denotes the assay readout, V denotes the uninhibited velocity of the enzyme, [I] denotes the inhibitor concentration, n denotes the slope and IC50 is the inhibitor concentration at V/2.
(§3) [S] denotes the substrate concentration.

FXIa CD [1] = molecular target: T2, FXIa CD (Homo sapiens, UniProt P03951, C500S/K455A/S452A/T493A); test: Ligand detected 1D NMR fragment screen; type: binding; settings: compounds screened at 100 μM, 5 μM FXIa CD
T2 construct: purification of the catalytic domain (residues 370–607) was carried out as described by Jin et al; made in house
Procedure: Ligand detected 1D NMR. Compounds were screened at 100 μM in mixtures of six. Weakly binding fragments were identified from intensity changes through measurements on three samples viz. […] The signal from a compound binding with low affinity to FXIa CD decreased upon addition of protein and regained upon addition of a high affinity reference compound. Comparison with reference spectra of individual compounds enabled identification of the binding fragment in a mixture. […] As a positive control, the S1 binding ligand para-methyl-benzamidine (pMeBza), compound 3, was used, and in Fig. 3 the doublet at 7.66 ppm is shown.
NMR samples were prepared in aqueous buffer containing 50 mM deuterated TRIS, pH 7.4, 3 mM NaN3, and 10% D2O. FXIa CD stock solution was buffer exchanged and concentrated to approximately 100 μM (2.7 mg/mL) (UV absorption ε280 = 60390 cm^-1) using 10 kDa cut-off Millipore filter centrifugation tubes. Control experiments with pMeBza and compound 2 were done on all protein preparations (Fig. 3). […]
NMR data were collected at 20 °C on a Bruker Avance III 600 MHz NMR spectrometer equipped with a cryo probe head. 1D ^1H T 1ρ NMR spectra were recorded with 256 scans, 3.2 s interscan delay, 180 ms spin lock time and 64 kHz spin lock field. […]

rat models = system: rat models; parameters: method as in PMID 17597608; settings: cited from earlier work
FXIa = system: FXIa; parameters: method as in PMID 17597608; settings: irreversible inhibition; cited from earlier work
FXIa CD [2] = molecular target: T2, FXIa CD; test: FXIa surface plasmon resonance (Biacore) inhibition in solution assay; type: binding
Source text: SPR. […] The SPR data were then used to rank and select compounds for X-ray crystallography experiments. The SPR method was based on an inhibition in solution assay in which compound 4, immobilized on the biosensor surface, served as a probe for the FXIa catalytic site. […] Fig. 4 illustrates the design of compound 4 based on the crystal structure of FXIa in complex with compound 1. Since any ligand that binds to the S1 pocket competes with compound 4 for binding to FXIa CD, it is possible to derive the K D for that ligand [60]. The initial binding rate of the protein to compound 4, K on, was used to determine the percentage of free protein in solution which changed by varying the concentration of the competing ligand. The free protein concentration was plotted against the logarithm of the ligand concentration and a sigmoidal dose–response curve-fit model was applied to determine the K D-value.
The tethered free amine ligand 4 was covalently linked to the dextran layer on the CM5 sensor chip (GE Healthcare/Biacore) using the Amine Coupling Kit (Healthcare/Biacore) and performed according to the manufacturer’s recommendations. Carboxyl groups on the dextran layer were activated by injecting a 1:1 mixture of 0.5 M N-ethyl-N’ (3-dimethylaminopropyl)-carbodiimide and 0.5 M N-hydroxysuccinimide at 10 μL/min for 7 min. The activated carboxyl groups on the control channels were blocked by injecting a 1 M ethanolamine solution for 7 min at 10 μL/min. […] The remaining activated groups were blocked with 1 M ethanolamine. Compounds were tested in a concentration response curve. The compounds were serially diluted 1:3 in DMSO to form a 10-point concentration response curve with 5 mM for the highest concentration. The FXIa CD was added to the plate at a final concentration of 50 nM and the mixture was incubated for 15 min at RT. The plate was then sealed and placed in the Biacore 3000 instrument. Samples were injected at 20 μL/min for 2 min. […] The value used to calculate percent inhibition of binding was the slope of the response measured 8 s after the start of the injection. […]

Human PKK = molecular target: T3, Human PKK (Homo sapiens, UniProt P03952); test: PKK (plasma kallikrein) chromogenic assay; type: biochemical; settings: for Ki: converted from IC50
T3 construct: trypsin, plasma kallikrein (PKK), FIXa; purchased Calbiochem, Darmstadt, Germany
Procedure: as §1, §2, §3
PKK. Human PKK was from Calbiochem, Darmstadt, Germany.

[3] = Precipitation in FXIa potency measurement; type: physicochemical
rat hepatocytes = test: Rat hepatocyte metabolic stability assay; type: in vitro ADME
Procedure: Rat hepatocyte metabolic stability was determined in accordance with the method described by Jacobson et al.. Cryo preserved hepatocytes at a concentration of 10^6 viable cells/mL were used. After thawing, hepatocytes were incubated for 10 min to warm to 37°C and test compounds, dissolved in acetonitrile, were added to give a final concentration of 1 μM. At 0.5, 5, 15, 30, 45, 60, 80, 100 and 120 min, the incubation system was mixed and 20 μL aliquots were transferred at each time point to wells in a separate plate filled with 80 μL acetonitrile to stop the reaction. The quenching plate was then vortexed followed by centrifugation, and supernatants were analyzed by LC/MS/MS. Peak areas were determined from extracted ion chromatograms, and the in vitro intrinsic clearance (in vitro CLint, in μL/min/10^6 cells) of parent compound was calculated from the slope in the regression analysis of the natural logarithm of parent concentration vs. time curve.

[4] = Chromatographic determination of lipophilicity; type: physicochemical; settings: reversed-phase UPLC, Waters BEH C18 stationary phase, pH 7.4; measured by liquid chromatography, pH7.4
Source text: The chromatographic data was obtained utilizing a Waters Aquity UPLC chromatographic system running a gradient from 5–95% acetonitrile at pH7.4. The stationary phase was a Waters BEH C18 2.1x50 mm. Standardized retention data were obtained by normalization against a set of compounds with precisely determined (octanol/water) logD-values. Lipophilicity values for samples were derived from a corresponding calibration curve.

Caco2 cells = test: Caco2 permeability; type: in vitro ADME; settings: measured at pH 6.5
Procedure: A monolayer of Caco2 cells, cultured on semi-permeable polycarbonate surfaces, was used to study the permeability in the apical to basolateral direction. The process was atomized by a robotic Tecan EVO platform (Männerdorf, Switzerland) and 24-transwell plates from Costar (Cambridge, MA, USA). HBSS buffer pH 7.4 was dispensed to the basal side of the monolayer. […] Samples for quantitative analysis by LC/MS/MS were withdrawn before the addition of the test substrate and at 45 and 120 min post addition of the test substrate. During incubation the transwell plates were placed in a shaking incubator at 37°C between sampling. The peak areas were exported to Excel where Papp-values and recoveries were calculated. Twenty-two reference compounds with known human oral bioavailability were used to establish a correlation curve with Papp versus the fraction of the oral dose absorbed (fa).

Caco2 efflux = type: in vitro ADME; settings: human, Caco-2; Caco2, Papp B to A / Papp A to B, pH 7.4 at side A
Source text: Efflux was studied in the same Caco2 cells with the modification that HBSS buffer pH 7.4 was used on both sides of the monolayer. The permeability was studied in the apical to basolateral direction (Papp AB) as well as in the basolateral to apical direction and (Papp BA). Efflux ratios were derived from the following equation: Papp BA/Papp AB.

In vivo rat PK = settings: female, Sprague Dawley, plasma
Procedure: Two days prior to dosing, female Sprague Dawley rats were prepared by cannulation of the left carotid artery for blood sampling and by cannulation of the right jugular vein for intravenous administration. The catheters were filled with heparin (100 IU/mL), exteriorized at the nape of the neck and sealed. The surgery was performed under isoflurane (Forene®, Abbott) anesthesia. After surgery the rats were housed individually and had free access to food and water. About 16 h prior to dosing the animals were deprived of food, and fasted until 4 h after dosing. The rats had free access to drinking water during the experiment. On the experiment day, the test item formulation was administered orally by gavage or intravenously in the jugular vein. At pre-defined time points, blood samples of about 0.150 mL were withdrawn from the carotid artery up to 24h after dosing. A total of 10 samples were withdrawn. The blood samples were collected in heparinized plastic tubes and centrifuged, within 30 min, for five min at 10 000 g and +4°C. The plasma was transferred to a 96 well plate and stored at -20°C until analysis by LC/MS/MS. The studies were approved by the Göteborg Animal Research Ethical Board.

T2 sequence (P03951 388-625 S452A/K455A/T493A/C500S): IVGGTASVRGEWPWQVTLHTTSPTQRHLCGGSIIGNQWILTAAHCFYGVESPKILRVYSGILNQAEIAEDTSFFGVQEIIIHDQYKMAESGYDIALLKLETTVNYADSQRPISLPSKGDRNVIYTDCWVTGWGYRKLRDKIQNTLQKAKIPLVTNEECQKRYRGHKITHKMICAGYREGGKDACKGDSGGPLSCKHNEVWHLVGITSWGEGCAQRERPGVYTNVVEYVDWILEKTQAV
T3 sequence (P03952 391-638 limits assumed): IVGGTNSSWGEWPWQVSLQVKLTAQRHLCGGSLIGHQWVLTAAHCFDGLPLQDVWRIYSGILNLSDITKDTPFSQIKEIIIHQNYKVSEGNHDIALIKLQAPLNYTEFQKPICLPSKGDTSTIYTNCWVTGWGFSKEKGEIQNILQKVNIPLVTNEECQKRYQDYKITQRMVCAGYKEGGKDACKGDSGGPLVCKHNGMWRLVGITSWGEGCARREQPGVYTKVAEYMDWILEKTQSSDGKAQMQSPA
T3 sequence (P03952 20-390 partner limits assumed): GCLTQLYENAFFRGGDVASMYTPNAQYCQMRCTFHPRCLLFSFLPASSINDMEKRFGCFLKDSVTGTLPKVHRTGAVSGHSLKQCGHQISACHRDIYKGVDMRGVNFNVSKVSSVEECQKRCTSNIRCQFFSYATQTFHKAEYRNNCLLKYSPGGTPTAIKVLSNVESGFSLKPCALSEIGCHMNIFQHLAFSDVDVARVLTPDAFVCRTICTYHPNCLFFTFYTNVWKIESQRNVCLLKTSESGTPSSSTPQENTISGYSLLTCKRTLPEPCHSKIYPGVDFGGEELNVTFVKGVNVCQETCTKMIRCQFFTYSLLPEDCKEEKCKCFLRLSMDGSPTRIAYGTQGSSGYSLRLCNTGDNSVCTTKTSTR
T1 sequence (P03951 388-625): as the sequence (P03951 388-625 S452A/K455A/T493A/C500S) above, with A65S, A68K, A106T, S113C counted along it
T1 sequence (P03951 19-387): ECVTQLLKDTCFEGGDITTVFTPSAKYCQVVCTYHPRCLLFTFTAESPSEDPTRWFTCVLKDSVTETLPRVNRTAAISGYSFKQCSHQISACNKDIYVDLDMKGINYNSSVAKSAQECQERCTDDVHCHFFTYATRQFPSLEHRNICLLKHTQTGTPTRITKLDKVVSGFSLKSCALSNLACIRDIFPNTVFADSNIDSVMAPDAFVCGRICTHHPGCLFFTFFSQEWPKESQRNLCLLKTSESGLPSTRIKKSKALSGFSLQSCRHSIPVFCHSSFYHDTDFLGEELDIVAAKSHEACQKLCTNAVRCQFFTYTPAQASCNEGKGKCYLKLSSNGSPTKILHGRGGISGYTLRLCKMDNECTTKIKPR

With “6-methyl-3,4-dihydro-1H-quinolin-2-one [Compound 17]” the “FXIa % inh. at 1 mM” value (Human FXIa; 1 mM) was 20% and the “hit in NMR screen” value (FXIa CD [1]) was “not identified as a hit in NMR”.
For `CC(C)(C)NC(=O)N1CCN(C(=O)N2C(=O)[C@H](CCCN=C(N)N)[C@H]2C(=O)O)CC1` [BMS-262084], the “in vivo antithrombotic efficacy” value (rat models) is given as “demonstrated in vivo antithrombotic efficacy” and the IC50 (FXIa) is given as 2.8 nM.
Work on `N=C(N)c1ccc2cc(C(=O)Nc3cccc(OCCOCCN)c3)cc(Nc3ncccn3)c2c1` [Compound 4, N-(3-(2-(2-aminoethoxy)ethoxy)phenyl)-6-carbamimidoyl-4-(pyrimidin-2-ylamino)-2-naphthamide, reference compound] yielded an IC50 (Human FXIa) of 240 nM, a Ki (Human FXIa) of 120 nM and a Kd (FXIa CD [2]) of 0.39 µM.
For `Nc1ccc2c(CNC(=O)[C@H](Cc3ccccc3)NC(=O)c3ccc4[nH]c(=O)cc(O)c4c3)cccc2n1` [Compound 8, (S)-N-(1-{(2-Aminoquinolin-5-yl)methylamino}-1-oxo-3-phenylpropan-2-yl)-4-hydroxy-2-oxo-1,2-dihydroquinoline-6-carboxamide], the IC50 (Human PKK) was 7.2 µM, the “selectivity vs. PKK” value (Human PKK; FXIa over PKK, for 13 based on Ki values) was “about 25 fold” and the Ki (Human PKK) was 1500 nM. The IC50 (Human FXIa) was 120 nM, the Ki (Human FXIa) was 60 nM and the pKa (Experimental pKa) was 7.1.
For `Cc1cc(=O)[nH]c2ccc(Cl)cc12` [Compound 12], the inhibition at 111 µM (Human FXIa; read-out: FXIa % inh. at 111 μM) was 43% and the “Precipitates at higher concentration than” value [3] was > 111 µM.
With `CNC(=O)[C@H](Cc1ccccc1)NC(=O)c1ccc2[nH]c(=O)cc(O)c2c1` [Compound 15, (S)-4-Hydroxy-N-(1-(methylamino)-1-oxo-3-phenylpropan-2-yl)-2-oxo-1,2-dihydroquinoline-6-carboxamide] the “ligand efficiency (LE)” value (Human FXIa; FXIa) was 0.15, the “-ΔG fragment (printed with reversed sign in the ΔG link equation)” value (Human FXIa; FXIa, subtracted term, so ΔG itself is negative) was 16.3 kJ/mol and the Kd (FXIa CD [2]; read-out: FXIa KD) was 1400 µM.
For `CN(Cc1cc(=O)[nH]c2ccc(Cl)cc12)C(=O)[C@H](Cc1ccccc1)N(C)C(=O)c1ccc2[nH]c(=O)cc(O)c2c1` [Compound 26, (S)-N-(1-[{(6-Chloro-2-oxo-1,2-dihydroquinolin-4-yl)methyl}(methyl)amino]-1-oxo-3-phenylpropan-2-yl)-4-hydroxy-N-methyl-2-oxo-1,2-dihydroquinoline-6-carboxamide], the “Rat CLint” value (rat hepatocytes) was 23 μL/min/ 1·10^6 cells, the IC50 (Human FXIa) was 1700 nM and the Ki (Human FXIa) was 850 nM. The chromatographic logD [4] was 1.4, the “Caco2 A to B permeability” value (Caco2 cells) was 0.16 1·10^-6 cm/s and the efflux ratio (Caco2 efflux) was > 3.8.
In the case of `Cc1c(-c2ccccc2)n[nH]c1C(=O)N(C)Cc1cc(=O)[nH]c2ccc(Cl)cc12` [Compound 28, N-{(6-Chloro-2-oxo-1,2-dihydroquinolin-4-yl)methyl}-N,4-dimethyl-3-phenyl-1H-pyrazole-5-carboxamide], the clearance (In vivo rat PK; intravenous, rat in vivo, read-out: Rat CL (in vivo clearance)) is reported as 18 mL/min/kg, the bioavailability (In vivo rat PK; rat, oral) is reported as 27% and the “Rat CLint” value (rat hepatocytes) is reported as 21 μL/min/ 1·10^6 cells. It also gave an IC50 (Human PKK) of 8.4 µM, a Ki (Human PKK) of 1700 nM and an IC50 (Human FXIa) of 820 nM. For the same compound, the Ki (Human FXIa) was 410 nM, the chromatographic logD [4] was 2.7 and the “Caco2 A to B permeability” value (Caco2 cells) was 19 1·10^-6 cm/s. It also gave an efflux ratio (Caco2 efflux) of 1.6.
